How the values were obtained:
HiBiT-BRM = biological target: T1, HiBiT-BRM (Homo sapiens, UniProt P51531); assay: HiBiT-BRM cell-based degradation assay (Nano-Glo HiBiT Lytic Detection); settings: HeLa cells expressing HiBiT-BRM, 24 h; for DC50: read-out: BRM HiBit Degradation IC50
T1 construct: expressed in transfected cells
Method in brief: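 HeLa cells stably expressing HiBiT-tagged BRM were treated for 24 h, then lysed with LgBiT-containing Nano-Glo reagent and luminescence read. % degradation scaled between DMSO (high control) and 2 μM reference BRM/BRG1 degrader (low control).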

HiBit-BRG1 = biological target: T2, HiBit-BRG1 (Homo sapiens, UniProt P51532); assay: HiBit-BRG1 cell-based degradation assay (Nano-Glo HiBiT Lytic Detection); settings: HeLa cells expressing HiBit-BRG1 and LgBit, 24 h; for DC50: read-out: BRG1 HiBit Degradation IC50; for Dmax: read-out: BRG1 HiBit Degradation Maximum (%)
T2 construct: expressed in transfected cells
T2 sequence (P51532 whole entry): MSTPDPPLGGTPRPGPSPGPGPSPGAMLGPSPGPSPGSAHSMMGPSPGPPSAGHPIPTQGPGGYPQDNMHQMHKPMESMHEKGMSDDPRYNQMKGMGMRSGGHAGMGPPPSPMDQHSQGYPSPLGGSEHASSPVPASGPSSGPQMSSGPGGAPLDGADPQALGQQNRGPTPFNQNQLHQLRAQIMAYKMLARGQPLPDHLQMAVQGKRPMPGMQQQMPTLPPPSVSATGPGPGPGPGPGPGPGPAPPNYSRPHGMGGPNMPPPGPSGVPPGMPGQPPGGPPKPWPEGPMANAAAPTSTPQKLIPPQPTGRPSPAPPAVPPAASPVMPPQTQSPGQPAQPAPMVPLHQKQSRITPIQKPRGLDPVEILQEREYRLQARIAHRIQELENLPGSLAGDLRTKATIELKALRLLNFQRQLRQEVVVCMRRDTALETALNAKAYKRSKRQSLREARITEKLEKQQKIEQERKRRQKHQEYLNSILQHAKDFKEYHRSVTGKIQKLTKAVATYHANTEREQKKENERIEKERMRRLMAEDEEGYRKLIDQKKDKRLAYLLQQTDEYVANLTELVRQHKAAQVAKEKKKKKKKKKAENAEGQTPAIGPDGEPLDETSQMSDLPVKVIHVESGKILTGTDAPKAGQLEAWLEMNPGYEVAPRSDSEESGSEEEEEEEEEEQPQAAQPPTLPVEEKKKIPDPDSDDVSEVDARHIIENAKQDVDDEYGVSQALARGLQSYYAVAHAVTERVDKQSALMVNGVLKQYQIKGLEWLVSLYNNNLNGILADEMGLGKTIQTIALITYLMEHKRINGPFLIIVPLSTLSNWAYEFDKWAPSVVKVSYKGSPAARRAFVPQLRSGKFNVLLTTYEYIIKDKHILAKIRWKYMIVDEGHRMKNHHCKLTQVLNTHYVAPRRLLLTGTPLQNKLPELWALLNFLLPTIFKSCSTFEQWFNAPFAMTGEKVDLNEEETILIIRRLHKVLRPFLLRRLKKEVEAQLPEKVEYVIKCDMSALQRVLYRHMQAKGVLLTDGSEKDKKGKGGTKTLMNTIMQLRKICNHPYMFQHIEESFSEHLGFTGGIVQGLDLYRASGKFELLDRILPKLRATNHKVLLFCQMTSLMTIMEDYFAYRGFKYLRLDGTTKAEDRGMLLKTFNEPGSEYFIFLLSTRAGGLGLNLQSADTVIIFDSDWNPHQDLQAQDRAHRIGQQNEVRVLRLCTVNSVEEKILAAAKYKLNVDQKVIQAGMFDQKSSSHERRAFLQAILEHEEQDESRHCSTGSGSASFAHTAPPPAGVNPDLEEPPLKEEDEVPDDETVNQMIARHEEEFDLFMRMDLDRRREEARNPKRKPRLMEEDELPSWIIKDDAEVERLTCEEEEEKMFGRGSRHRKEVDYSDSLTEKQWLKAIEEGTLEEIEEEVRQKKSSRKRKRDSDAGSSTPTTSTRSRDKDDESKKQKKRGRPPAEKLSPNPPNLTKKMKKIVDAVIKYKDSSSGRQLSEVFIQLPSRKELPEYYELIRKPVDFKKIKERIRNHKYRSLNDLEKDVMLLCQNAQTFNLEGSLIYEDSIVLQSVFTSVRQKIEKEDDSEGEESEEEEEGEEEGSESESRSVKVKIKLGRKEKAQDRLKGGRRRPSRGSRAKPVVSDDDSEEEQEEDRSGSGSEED
Method in brief: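 HeLa cells stably expressing HiBit-BRG1 plus LgBit; compound exposure 24 h; Nano-Glo HiBiT lytic luminescence; % degradation vs DMSO (0%) and 2 μM standard BRM/BRG1 degrader (100%).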

T1 sequence (P51531 whole entry): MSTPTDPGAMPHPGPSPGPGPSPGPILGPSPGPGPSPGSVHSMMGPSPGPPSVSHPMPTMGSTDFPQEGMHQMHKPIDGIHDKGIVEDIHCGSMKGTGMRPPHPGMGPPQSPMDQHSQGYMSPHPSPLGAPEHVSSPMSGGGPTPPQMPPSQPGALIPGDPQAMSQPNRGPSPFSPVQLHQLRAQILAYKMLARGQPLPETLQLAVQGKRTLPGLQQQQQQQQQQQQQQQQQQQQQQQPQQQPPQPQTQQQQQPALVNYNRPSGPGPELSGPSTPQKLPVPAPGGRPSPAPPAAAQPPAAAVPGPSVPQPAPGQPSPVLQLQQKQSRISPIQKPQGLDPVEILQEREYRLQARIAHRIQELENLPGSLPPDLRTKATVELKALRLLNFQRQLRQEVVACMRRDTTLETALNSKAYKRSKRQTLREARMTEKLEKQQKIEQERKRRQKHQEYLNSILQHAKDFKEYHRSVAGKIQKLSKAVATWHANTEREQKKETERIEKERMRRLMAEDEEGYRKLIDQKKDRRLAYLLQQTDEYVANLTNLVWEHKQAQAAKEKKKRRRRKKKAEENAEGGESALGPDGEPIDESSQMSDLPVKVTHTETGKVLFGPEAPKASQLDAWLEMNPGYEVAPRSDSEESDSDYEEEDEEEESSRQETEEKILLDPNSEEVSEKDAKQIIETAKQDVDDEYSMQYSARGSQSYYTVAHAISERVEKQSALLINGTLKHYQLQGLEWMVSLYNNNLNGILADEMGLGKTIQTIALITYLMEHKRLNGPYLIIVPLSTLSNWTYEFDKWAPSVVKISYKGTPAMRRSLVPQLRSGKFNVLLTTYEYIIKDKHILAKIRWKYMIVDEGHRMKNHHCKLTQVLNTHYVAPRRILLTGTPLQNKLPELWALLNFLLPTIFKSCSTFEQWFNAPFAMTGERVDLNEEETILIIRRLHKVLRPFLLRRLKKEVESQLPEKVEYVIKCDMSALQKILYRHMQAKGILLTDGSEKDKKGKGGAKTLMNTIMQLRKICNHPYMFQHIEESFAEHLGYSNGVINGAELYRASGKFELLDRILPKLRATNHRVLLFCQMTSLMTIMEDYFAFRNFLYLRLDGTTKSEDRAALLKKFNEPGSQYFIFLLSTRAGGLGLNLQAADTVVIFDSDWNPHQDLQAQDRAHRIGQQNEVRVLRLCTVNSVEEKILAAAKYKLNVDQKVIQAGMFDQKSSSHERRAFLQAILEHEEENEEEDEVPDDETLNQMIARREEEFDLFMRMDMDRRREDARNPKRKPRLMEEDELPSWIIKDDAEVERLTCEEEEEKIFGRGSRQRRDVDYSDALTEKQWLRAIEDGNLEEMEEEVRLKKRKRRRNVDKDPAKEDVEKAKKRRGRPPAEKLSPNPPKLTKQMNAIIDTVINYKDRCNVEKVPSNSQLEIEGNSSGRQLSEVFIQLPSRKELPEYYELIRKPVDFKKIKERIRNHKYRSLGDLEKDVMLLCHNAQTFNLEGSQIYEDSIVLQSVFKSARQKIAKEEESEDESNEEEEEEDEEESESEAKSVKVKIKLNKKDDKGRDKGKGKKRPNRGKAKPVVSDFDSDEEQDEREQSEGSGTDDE

| DC50 (HiBiT-BRM) | DC50 (HiBit-BRG1) | Dmax (HiBit-BRG1) | Compound | BRM HiBit Degradation Maximum (%) (HiBiT-BRM) |
| --- | --- | --- | --- | --- |
| > 100 nM | > 1000 nM | < 50% | Cc1ncsc1-c1ccc(CNC(=O)[C@@H]2C[C@@H](O)CN2C(=O)[C@@H](NC(=O)CCCCCCCCCCCCCCC(=O)NCc2ccc(CCOc3cc(-c4ccccc4O)nnc3N)cc2)C(C)(C)C)cc1 [Compound 40, N1-(4-(2-((3-amino-6-(2-hydroxyphenyl)pyridazin-4-yl)oxy)ethyl)benzyl)-N16-((S)-1-((2S,4R)-4-hydroxy-2-((4-(4-methylthiazol-5-yl)benzyl)carbamoyl)pyrrolidin-1-yl)-3,3-dimethyl-1-oxobutan-2-yl)hexadecanediamide] | A (“A” indicates maximum degradation ≥75%) |
| > 1000 nM | > 1000 nM | < 50% | Nc1nnc(-c2ccccc2O)cc1OCCc1ccc(C(=O)NCCCCCCCCNC(=O)COc2cccc3c2C(=O)N(C2CCC(=O)NC2=O)C3=O)cc1 (centres unmarked) [Compound 41, N-(8-[[4-(2-[[3-amino-6-(2-hydroxyphenyl)pyridazin-4-yl]oxy]ethyl)phenyl]formamido]octyl)-2-[[2-(2,6-dioxopiperidin-3-yl)-1,3-dioxoisoindol-4-yl]oxy]acetamide] | C (“C” indicates maximum degradation <50%) |
| > 1000 nM | > 1000 nM | < 50% | Nc1nnc(-c2ccccc2O)cc1OCCc1ccc(C(=O)NCCCCNc2ccc3c(c2)C(=O)N(C2CCC(=O)NC2=O)C3=O)cc1 (centres unmarked) [Compound 42, 4-(2-[[3-amino-6-(2-hydroxyphenyl)pyridazin-4-yl]oxy]ethyl)-N-(4-[[2-(2,6-dioxopiperidin-3-yl)-1,3-dioxoisoindol-5-yl]amino]butyl)benzamide] | C (“C” indicates maximum degradation <50%) |
| > 1000 nM | > 1000 nM | < 50% | Nc1nnc(-c2ccccc2O)cc1OCCc1ccc(C(=O)NCCOCCOCCNc2cccc3c2C(=O)N(C2CCC(=O)NC2=O)C3=O)cc1 (centres unmarked) [Compound 43, 4-(2-[[3-amino-6-(2-hydroxyphenyl)pyridazin-4-yl]oxy]ethyl)-N-[2-[2-(2-[[2-(2,6-dioxopiperidin-3-yl)-1,3-dioxoisoindol-4-yl]amino]ethoxy)ethoxy]ethyl]benzamide] | C (“C” indicates maximum degradation <50%) |
| > 100 nM | > 1000 nM | < 50% | Nc1nnc(-c2ccccc2O)cc1OCCc1ccc(C(=O)NCCCCCCCCNc2cccc3c2C(=O)N(C2CCC(=O)NC2=O)C3=O)cc1 (centres unmarked) [Compound 44, 4-(2-((3-amino-6-(2-hydroxyphenyl)pyridazin-4-yl)oxy)ethyl)-N-(8-((2-(2,6-dioxopiperidin-3-yl)-1,3-dioxoisoindolin-4-yl)amino)octyl)benzamide] | B (“B” indicates maximum degradation ≥50%) |
| > 1000 nM | > 1000 nM | < 50% | Cc1nc2cccc(NCCCCCCCCNC(=O)c3ccc(CCOc4cc(-c5ccccc5O)nnc4N)cc3)c2c(=O)n1C1CCC(=O)NC1=O (centres unmarked) [Compound 45, 4-(2-[[3-amino-6-(2-hydroxyphenyl)pyridazin-4-yl]oxy]ethyl)-N-(8-[[3-(2,6-dioxopiperidin-3-yl)-2-methyl-4-oxoquinazolin-5-yl]amino]octyl)benzamide] | C (“C” indicates maximum degradation <50%) |
| > 1000 nM | > 1000 nM | < 50% | Nc1nnc(-c2ccccc2O)cc1OCCc1ccc(C(=O)NCCCCCCNc2ccc3c(c2)C(=O)N(C2CCC(=O)NC2=O)C3=O)cc1 (centres unmarked) [Compound 46, 4-(2-[[3-amino-6-(2-hydroxyphenyl)pyridazin-4-yl]oxy]ethyl)-N-(6-[[2-(2,6-dioxopiperidin-3-yl)-1,3-dioxoisoindol-5-yl]amino]hexyl)benzamide] | C (“C” indicates maximum degradation <50%) |
| > 100 nM | > 1000 nM | < 50% | Cc1ncsc1-c1ccc(CNC(=O)[C@@H]2C[C@@H](O)CN2C(=O)[C@@H](NC(=O)CCCCCCCCCNC(=O)c2ccc(CCOc3cc(-c4ccccc4O)nnc3N)cc2)C(C)(C)C)cc1 [Compound 47, (2S,4R)-1-[(2S)-2-(10-[[4-(2-[[3-amino-6-(2-hydroxyphenyl)pyridazin-4-yl]oxy]ethyl)phenyl]formamido]decanamido)-3,3-dimethylbutanoyl]-4-hydroxy-N-[[4-(4-methyl-1,3-thiazol-5-yl)phenyl]methyl]pyrrolidine-2-carboxamide] | B (“B” indicates maximum degradation ≥50%) |
| > 1000 nM | > 1000 nM | < 50% | Cc1nc2cccc(NCCOCCOCCNC(=O)c3ccc(CCOc4cc(-c5ccccc5O)nnc4N)cc3)c2c(=O)n1C1CCC(=O)NC1=O (centres unmarked) [Compound 48, 4-(2-[[3-amino-6-(2-hydroxyphenyl)pyridazin-4-yl]oxy]ethyl)-N-[2-[2-(2-[[3-(2,6-dioxopiperidin-3-yl)-2-methyl-4-oxoquinazolin-5-yl]amino]ethoxy)ethoxy]ethyl]benzamide] | C (“C” indicates maximum degradation <50%) |
| > 1000 nM | > 1000 nM | < 50% | Nc1nnc(-c2ccccc2O)cc1OCCc1ccc(C(=O)N2CCC(C3CCN(C(=O)COc4cccc5c4C(=O)N(C4CCC(=O)NC4=O)C5=O)CC3)CC2)cc1 (centres unmarked) [Compound 49, 4-(2-(1′-(4-(2-((3-amino-6-(2-hydroxyphenyl)pyridazin-4-yl)oxy)ethyl)benzoyl)-[4,4′-bipiperidin]-1-yl)-2-oxoethoxy)-2-(2,6-dioxopiperidin-3-yl)isoindoline-1,3-dione] | C (“C” indicates maximum degradation <50%) |
| > 1000 nM | > 1000 nM | < 50% | Nc1nnc(-c2ccccc2O)cc1OCCc1ccc(C(=O)NCCCCCNc2cccc3c2C(=O)N(C2CCC(=O)NC2=O)C3=O)cc1 (centres unmarked) [Compound 50, 4-(2-((3-amino-6-(2-hydroxyphenyl)pyridazin-4-yl)oxy)ethyl)-N-(5-((2-(2,6-dioxopiperidin-3-yl)-1,3-dioxoisoindolin-4-yl)amino)pentyl)benzamide] | C (“C” indicates maximum degradation <50%) |
| > 1000 nM | > 1000 nM | < 50% | Nc1nnc(-c2ccccc2O)cc1OCCc1ccc(C(=O)NCCCCCNc2ccc3c(c2)C(=O)N(C2CCC(=O)NC2=O)C3=O)cc1 (centres unmarked) [Compound 51, 4-(2-[[3-amino-6-(2-hydroxyphenyl)pyridazin-4-yl]oxy]ethyl)-N-(5-[[2-(2,6-dioxopiperidin-3-yl)-1,3-dioxoisoindol-5-yl]amino]pentyl)benzamide] | C (“C” indicates maximum degradation <50%) |
| > 1000 nM | > 1000 nM | < 50% | Cc1nc2cccc(NCCCCCCNC(=O)c3ccc(CCOc4cc(-c5ccccc5O)nnc4N)cc3)c2c(=O)n1C1CCC(=O)NC1=O (centres unmarked) [Compound 52, 4-(2-[[3-amino-6-(2-hydroxyphenyl)pyridazin-4-yl]oxy]ethyl)-N-(6-[[3-(2,6-dioxopiperidin-3-yl)-2-methyl-4-oxoquinazolin-5-yl]amino]hexyl)benzamide] | C (“C” indicates maximum degradation <50%) |
| > 1000 nM | > 1000 nM | < 50% | Nc1nnc(-c2ccccc2O)cc1OCCc1ccc(C(=O)NCCOCCOCCNc2cccc3c2CN(C2CCC(=O)NC2=O)C3=O)cc1 (centres unmarked) [Compound 54, 4-(2-[[3-amino-6-(2-hydroxyphenyl)pyridazin-4-yl]oxy]ethyl)-N-[2-[2-(2-[[2-(2,6-dioxopiperidin-3-yl)-1-oxo-3H-isoindol-4-yl]amino]ethoxy)ethoxy]ethyl]benzamide] | C (“C” indicates maximum degradation <50%) |
| > 1000 nM | > 1000 nM | < 50% | Nc1nnc(-c2ccccc2O)cc1OCCc1ccc(C(=O)NCCS(=O)(=O)CCNc2cccc3c2C(=O)N(C2CCC(=O)NC2=O)C3=O)cc1 (centres unmarked) [Compound 55, 4-(2-[[3-amino-6-(2-hydroxyphenyl)pyridazin-4-yl]oxy]ethyl)-N-[2-(2-[[2-(2,6-dioxopiperidin-3-yl)-1,3-dioxoisoindol-4-yl]amino]ethanesulfonyl)ethyl]benzamide] | C (“C” indicates maximum degradation <50%) |
| > 1000 nM | > 1000 nM | < 50% | Nc1nnc(-c2ccccc2O)cc1OCCc1ccc(C(=O)NCCCCCCCCNc2cccc3c2CN(C2CCC(=O)NC2=O)C3=O)cc1 (centres unmarked) [Compound 56] | C (“C” indicates maximum degradation <50%) |
| > 100 nM | > 1000 nM | < 50% | Cc1ncsc1-c1ccc(CNC(=O)[C@@H]2C[C@@H](O)CN2C(=O)[C@@H](NC(=O)CCCCCCCNC(=O)c2ccc(CCOc3cc(-c4ccccc4O)nnc3N)cc2)C(C)(C)C)cc1 [Compound 57, (2S,4R)-1-[(2S)-2-(8-[[4-(2-[[3-amino-6-(2-hydroxyphenyl)pyridazin-4-yl]oxy]ethyl)phenyl]formamido]octanamido)-3,3-dimethylbutanoyl]-4-hydroxy-N-[[4-(4-methyl-1,3-thiazol-5-yl)phenyl]methyl]pyrrolidine-2-carboxamide] | B (“B” indicates maximum degradation ≥50%) |
